This is an account of results in patent US7625713B2, “Process for identifying a ligand that binds to the NEP binding site for the SMR1 pentapeptide” (Institut Pasteur, priority 2000, dated 2009).

Each structure is given as a SMILES string. Where a SMILES comes first, the peptide text is derived from it.

In the assay the target is T1, purified rabbit renal NEP (Oryctolagus cuniculus, UniProt P08049).
T1 construct: purified rabbit renal NEP; from tissue; host or cells: rabbit kidney (purified enzyme)
T1 sequence (P08049 1-750): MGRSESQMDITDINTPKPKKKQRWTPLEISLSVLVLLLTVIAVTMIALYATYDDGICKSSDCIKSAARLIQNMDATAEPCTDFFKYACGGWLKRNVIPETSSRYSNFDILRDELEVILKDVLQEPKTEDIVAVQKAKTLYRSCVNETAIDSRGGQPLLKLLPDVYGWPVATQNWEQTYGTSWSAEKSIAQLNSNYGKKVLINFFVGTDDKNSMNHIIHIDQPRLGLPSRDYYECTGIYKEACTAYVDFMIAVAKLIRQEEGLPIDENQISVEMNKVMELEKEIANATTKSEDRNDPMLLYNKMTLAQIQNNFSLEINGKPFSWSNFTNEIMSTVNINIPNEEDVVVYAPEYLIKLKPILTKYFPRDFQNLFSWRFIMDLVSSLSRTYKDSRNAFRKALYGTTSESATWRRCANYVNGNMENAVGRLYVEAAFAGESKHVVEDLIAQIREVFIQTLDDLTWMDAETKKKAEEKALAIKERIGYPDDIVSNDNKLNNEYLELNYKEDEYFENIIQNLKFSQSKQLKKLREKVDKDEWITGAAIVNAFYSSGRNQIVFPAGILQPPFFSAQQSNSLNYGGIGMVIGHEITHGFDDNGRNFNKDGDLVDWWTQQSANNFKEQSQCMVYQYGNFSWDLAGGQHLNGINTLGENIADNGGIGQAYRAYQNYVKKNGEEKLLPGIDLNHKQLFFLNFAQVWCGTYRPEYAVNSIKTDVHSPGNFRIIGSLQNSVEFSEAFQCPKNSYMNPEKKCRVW
Description: Substance P catabolism by purified rabbit renal NEP. It is filed as biochemical. As to conditions: substance P as substrate, read-out: inhibition of substance P catabolism by the soluble enzyme.

Regarding `N=C(N)NCCC[C@H](NC(=O)[C@@H]1CCCN1C(=O)[C@H](CC(N)=O)NC(=O)[C@H](Cc1c[nH]cn1)NC(=O)[C@@H](N)CCC(N)=O)C(=O)O` [sialorphin, Gln-His-Asn-Pro-Arg] (H-QHNPR-OH; N-terminus and C-terminus assumed), the inhibition (as a rule, the share of the control response that was lost under treatment) at 5 µM was 46%.
